ChEMBL document CHEMBL4028802, “DILIrank: the largest reference drug list ranked by the risk for developing drug-induced liver injury in humans” (Drug Discov Today, 2016)

Experiments:
[1] = species on record: Homo sapiens; experiment: Liver toxicity in human assessed as induction of drug-induced liver injury by measuring severity class index
[2] = species on record: Homo sapiens; experiment: Liver toxicity in human assessed as induction of drug-induced liver injury by measuring verified drug-induced liver injury concern status
Wherever DILI severity class is given: key of the grades not given here.

Molecule	DILI_severity_class [1]	DILI_Concern [2]
CN(C)CCCN1c2ccccc2CCc2ccc(Cl)cc21 [CLOMIPRAMINE]	8	Most-Dili-Concern
Nc1ccc(O)c(C(=O)O)c1 [MESALAMINE]	7	Less-Dili-Concern
CCOC(=O)C1(c2ccccc2)CCN(C)CC1 [MEPERIDINE]	0	No-Dili-Concern
CC(C)C[C@H](NC(=O)[C@H](CCCCN)NC(=O)CNC(=O)[C@H](CC(C)C)NC(=O)[C@@H](NC(=O)[C@@H]1CSSC[C@H](N)C(=O)N[C@@H](CO)C(=O)N[C@@H](CC(N)=O)C(=O)N[C@@H](CC(C)C)C(=O)N[C@@H](CO)C(=O)N[C@@H]([C@@H](C)O)C(=O)N1)C(C)C)C(=O)N[C@@H](CO)C(=O)N[C@@H](CCC(N)=O)C(=O)N[C@@H](CCC(=O)O)C(=O)N[C@@H](CC(C)C)C(=O)N[C@@H](Cc1c[nH]cn1)C(=O)N[C@@H](CCCCN)C(=O)N[C@@H](CC(C)C)C(=O)N[C@@H](CCC(N)=O)C(=O)N[C@H](C(=O)N[C@@H](Cc1ccc(O)cc1)C(=O)N1CCC[C@H]1C(=O)N[C@@H](CCCNC(=N)N)C(=O)N[C@H](C(=O)N[C@@H](CC(N)=O)C(=O)N[C@H](C(=O)NCC(=O)N[C@@H](CO)C(=O)NCC(=O)N[C@H](C(=O)N1CCC[C@H]1C(N)=O)[C@@H](C)O)[C@@H](C)O)[C@@H](C)O)[C@@H](C)O [CALCITONIN SALMON]	0	No-Dili-Concern
CC(C)[C@H](N)C(=O)OCCOCn1cnc2c(=O)[nH]c(N)nc21 [VALACYCLOVIR]	3	Less-Dili-Concern
C[C@@](Cc1ccc(O)c(O)c1)(NN)C(=O)O [CARBIDOPA ANHYDROUS]	3	Ambiguous-Dili-Concern
CC(C)C[C@H](NC(=O)[C@H](Cc1c[nH]c2ccccc12)NC(=O)[C@H](Cc1ccc(O)cc1)NC(=O)[C@H](CO)NC(=O)[C@H](Cc1c[nH]c2ccccc12)NC(=O)[C@H](Cc1c[nH]cn1)NC(=O)[C@@H]1CCC(=O)N1)C(=O)N[C@@H](CCCNC(=N)N)C(=O)N1CCC[C@H]1C(=O)NCC(N)=O.O=C(O)c1cc2ccccc2c(Cc2c(O)c(C(=O)O)cc3ccccc23)c1O	3	Less-Dili-Concern
CNC(=C[N+](=O)[O-])NCCSCc1ccc(CN(C)C)o1 [RANITIDINE]	5	Less-Dili-Concern
CN(C)CCc1c[nH]c2ccc(C[C@H]3COC(=O)N3)cc12 [ZOLMITRIPTAN]	3	Ambiguous-Dili-Concern
CC(=O)O[C@@]12CO[C@@H]1C[C@H](O)[C@@]1(C)C(=O)[C@H](O)C3=C(C)[C@@H](OC(=O)[C@H](O)[C@@H](NC(=O)OC(C)(C)C)c4ccccc4)C[C@@](O)([C@@H](OC(=O)c4ccccc4)[C@H]21)C3(C)C [DOCETAXEL ANHYDROUS]	3	Less-Dili-Concern
Cc1ccsc1C(=CCCN1CCC[C@@H](C(=O)O)C1)c1sccc1C [TIAGABINE]	3	Ambiguous-Dili-Concern
N=C(N)NCCC[C@H](N)C(=O)O [ARGININE]	0	No-Dili-Concern
Cn1cnc([N+](=O)[O-])c1Sc1ncnc2nc[nH]c12 [AZATHIOPRINE]	5	Most-Dili-Concern
Nc1ccc(S(=O)(=O)c2ccc(N)cc2)cc1 [DAPSONE]	3	Less-Dili-Concern
Clc1ccccc1C(c1ccccc1)(c1ccccc1)n1ccnc1 [CLOTRIMAZOLE]	3	Less-Dili-Concern
CC[C@H]1OC(=O)[C@H](C)[C@@H](O[C@H]2C[C@@](C)(OC)[C@@H](O)[C@H](C)O2)[C@H](C)[C@@H](O[C@@H]2O[C@H](C)C[C@H](N(C)C)[C@H]2O)[C@](C)(O)C[C@@H](C)CN(C)[C@H](C)[C@@H](O)[C@]1(C)O [AZITHROMYCIN]	7	Less-Dili-Concern
CCN(CC)C(C)C(=O)c1ccccc1 (stereo not drawn) [DIETHYLPROPION]	0	No-Dili-Concern
O=C(O)c1cc(/N=N/c2ccc(O)c(C(=O)O)c2)ccc1O [OLSALAZINE]	8	Less-Dili-Concern
C=CCN1C[C@H](C(=O)N(CCCN(C)C)C(=O)NCC)C[C@@H]2c3cccc4[nH]cc(c34)C[C@H]21 [CABERGOLINE]	0	No-Dili-Concern
CC(=O)NCCCS(=O)(=O)O [ACAMPROSATE]	3	Less-Dili-Concern
O=c1[nH]c(=O)n([C@@H]2O[C@H](CO)[C@@H](O)[C@@H]2F)cc1I [FIALURIDINE]	8	Most-Dili-Concern
CN1CCN(C(c2ccccc2)c2ccc(Cl)cc2)CC1 (stereo not drawn) [CHLORCYCLIZINE]	0	Less-Dili-Concern
CN1C(=O)OC(C)(C)C1=O [TRIMETHADIONE]	5	Ambiguous-Dili-Concern
CCc1nn(CCCN2CCN(c3cccc(Cl)c3)CC2)c(=O)n1CCOc1ccccc1 [NEFAZODONE]	8	Most-Dili-Concern
O=C1Nc2ccc(Cl)cc2C(c2ccccc2)=NC1O (stereo not drawn) [OXAZEPAM]	5	Ambiguous-Dili-Concern
CCN1CC(CCN2CCOCC2)C(c2ccccc2)(c2ccccc2)C1=O (stereo not drawn) [DOXAPRAM]	0	No-Dili-Concern
CC[C@@H](c1cccc(O)c1)[C@@H](C)CN(C)C [TAPENTADOL]	0	No-Dili-Concern

Molecule	DILI_severity_class [1]	DILI_Concern [2]
C=CCOc1ccc(CC(=O)O)cc1Cl [ALCLOFENAC]	8	Most-Dili-Concern
COc1cc2c(cc1OC)[C@@H](Cc1cc(OC)c(OC)c(OC)c1)[N+](C)(CCCOC(=O)CC/C=C/CCC(=O)OCCC[N+]1(C)CCc3cc(OC)c(OC)cc3[C@H]1Cc1cc(OC)c(OC)c(OC)c1)CC2 (stereo partly drawn)	0	No-Dili-Concern
Nc1nc2c(c(=O)[nH]1)N(C=O)C(CNc1ccc(C(=O)N[C@@H](CCC(=O)O)C(=O)O)cc1)CN2 (stereo partly drawn) [LEUCOVORIN]	0	No-Dili-Concern
CNC[C@H](O)c1ccc(O)c(O)c1 [EPINEPHRINE]	0	No-Dili-Concern
C[C@H]1C[C@@H]2[C@H]([C@@H](O)C[C@@]3(C)[C@H]2CC[C@]3(O)C(=O)CO)[C@@]2(C)C=CC(=O)C=C12 [METHYLPREDNISOLONE]	3	Less-Dili-Concern
NYSTATIN	0	No-Dili-Concern
CN1Cc2c(N)cccc2C(c2ccccc2)C1 (stereo not drawn) [NOMIFENSINE]	8	Most-Dili-Concern
C[C@H](N[C@@H](CCc1ccccc1)C(=O)O)C(=O)N1CCC[C@H]1C(=O)O [ENALAPRILAT ANHYDROUS]	7	Ambiguous-Dili-Concern
VITAMIN E	0	No-Dili-Concern
CN1CCC[C@@H]1CCO[C@](C)(c1ccccc1)c1ccc(Cl)cc1 [CLEMASTINE]	0	No-Dili-Concern
CCCCCCCCCC(=O)O[C@H]1CC[C@H]2[C@@H]3CCC4=CC(=O)CC[C@@H]4[C@H]3CC[C@]12C [NANDROLONE DECANOATE]	7	Most-Dili-Concern
C[C@@H](Cc1ccccc1)N(C)Cc1ccccc1 [BENZPHETAMINE]	0	No-Dili-Concern
COc1cccc2c1C(=O)c1c(O)c3c(c(O)c1C2=O)C[C@@](O)(C(=O)CO)C[C@@H]3O[C@H]1C[C@H](N)[C@@H](O)[C@H](C)O1 [EPIRUBICIN]	3	Ambiguous-Dili-Concern
CCN(CC)CC(=O)Nc1c(C)cccc1C [LIDOCAINE]	0	No-Dili-Concern
C[C@]12CCC(=O)C=C1CC[C@@H]1[C@@H]2[C@@H](O)C[C@@]2(C)[C@H]1CC[C@]2(O)C(=O)CO [HYDROCORTISONE]	0	No-Dili-Concern
CCCCS(=O)(=O)N[C@@H](Cc1ccc(OCCCCC2CCNCC2)cc1)C(=O)O [TIROFIBAN]	0	No-Dili-Concern
CN(Cc1cnc2nc(N)nc(N)c2n1)c1ccc(C(=O)N[C@@H](CCC(=O)O)C(=O)O)cc1 [METHOTREXATE]	3	Most-Dili-Concern
N[C@@H](Cc1ccc(N(CCCl)CCCl)cc1)C(=O)O	5	Less-Dili-Concern
CCN1C(=O)NC(c2ccccc2)C1=O (stereo not drawn) [ETHOTOIN]	3	Ambiguous-Dili-Concern
C[C@]1(O)CC[C@H]2[C@@H]3CCC4=CC(=O)CC[C@]4(C)[C@@]3(F)[C@@H](O)C[C@@]21C [FLUOXYMESTERONE]	8	Ambiguous-Dili-Concern
CNC1(c2ccccc2Cl)CCCCC1=O (stereo not drawn) [KETAMINE]	0	Less-Dili-Concern
C=C1/C(=C\C=C2/CCC[C@]3(C)[C@@H]([C@H](C)CCCC(C)(C)O)CC[C@@H]23)C[C@@H](O)C[C@@H]1O [CALCITRIOL]	0	No-Dili-Concern
CCCSc1ccc2nc(NC(=O)OC)[nH]c2c1 [ALBENDAZOLE]	7	Most-Dili-Concern
CC(C)=CCN1CC[C@]2(C)c3cc(O)ccc3C[C@H]1[C@H]2C [(+)-PENTAZOCINE]	0	No-Dili-Concern
CSCC[C@H](N)C(=O)O [METHIONINE]	0	No-Dili-Concern
CN1CCN(CCCN2c3ccccc3Sc3ccc(Cl)cc32)CC1 [PROCHLORPERAZINE]	2	Less-Dili-Concern
CNCCCN1c2ccccc2CCc2ccccc21 [DESIPRAMINE]	3	Ambiguous-Dili-Concern
